Laboratory results reported in patent US20040260272A1, “Method and system for intravesicular delivery of therapeutic agents” (priority 2002, published 2004).

Legend:
[1] = In vitro release of Ciprofloxacin from cast hydrophilic polyurethane film in phosphate buffer; format: physicochemical; conditions: core loading 6.0 wt %, 37 C
Experimental: A cast film of polyurethane containing Ciprofloxacin was made by reacting hydrophilic polyurethane prepolymer (Urepol 1002A obtained from Envirochem) with distilled water. The reacting mixture was spread in a thin film over a glass petri dish. The film was cured overnight and dried to leave a thin film of polyurethane containing Ciprofloxacin. The resultant drug carrying film was further vacuum-dried. The drug loading was measured to be 0.06 gms per 1 gm of coated film, i.e. 6.0 wt %.
The drug carrying film was placed in phosphate buffer at 37 C and a pH of 7.4 and the Ciprofloxacin in vitro release was measured.

[2] = In vitro release of Thio-TEPA from polyurethane-coated polyurethane foam substrate in phosphate buffer; format: physicochemical; conditions: core loading 0.9 wt %, 37 C
Experimental: A reticulated TDI/polyether based foam (SIF grade obtained from Foamex) was used as a scaffold or substrate. The foam substrate was 4″×4″ (10.2 cm×10.2 cm) square sample with a thickness of ¼″ or 0.635 cm with a volume of 65.5 cm^3 and weighed 1.2 g, giving a density of 0.0183 gms/cc. 2.42 grams of hydrophilic polyurethane prepolymer (Urepol 1002A obtained from Envirochem) and 64 milligrams of Thio-TEPA was diluted in 6 ml of DMF. The foam was dipped into the solution mixture of polyurethane prepolymer, Thio-TEPA and DMF. The Thio-TEPA containing solution mixture of polyurethane prepolymer and DMF was then distributed and spread over the foam substrate. During the spreading and distribution, it was ensured that solution mixture contacted the foam substrate from all sides and coated both the surface and internal pores of the foam substrate.
The foam substrate with coated solution mixture was held overnight below 8° C. The coating was cured by the reaction of the ambient moisture with the available reactive isocyanate in the prepolymer. After the overnight curing, the foam substrate with coated solution mixture was vacuum-dried to remove residual solvents to leave a coating of polyurethane containing Thio-TEPA.
The final weight of the foam substrate and the drug loaded coating was 3.24 gms. Density of the coated foam substrate was 0.0495 gms/cc. The drug loading was 0.009 gms per 1 gm of coated foam substrate, i.e. 0.9 wt %. The drug entrapment efficiency was 50% calculated from a final measures drug loading of 0.9 wt % and a theoretical drug loading of 1.8 wt %. The weight of the drug in the final coated foam substrate was 0.029 gms or 29 mgs with the drug density on the coated foam substrate being 0.44 mgs per cc.
The coated foam substrate was placed in phosphate buffer at 37 C, and a pH of 7.4 and the Thio-TEPA in vitro release was measured.

[3] = Immobilization of collagenase in composite foam polymer system; conditions: composite foam (hydrophobic polyurethane scaffold with hydrophilic polyurethane coating)

In the case of `O=C(O)c1cn(C2CC2)c2cc(N3CCNCC3)c(F)cc2c1=O` [Ciprofloxacin], the “Cumulative Release, % at Day 1” value ([1]; pH 7.4, Day 1) is reported as 15.7%, the “Cumulative Release, % at Day 3” value ([1]; pH 7.4, Day 3) is reported as 16.8% and the “Cumulative Release, % at Day 4” value ([1]; pH 7.4, Day 4) is reported as 29.28%.
In the case of `S=P(N1CC1)(N1CC1)N1CC1` [Thio-Tepa, Thio-TEPA], the “Cumulative Release, % at Day 1” value ([2]; pH 7.4, Day 1) is reported as 11.9%, the “Cumulative Release, % at Day 3” value ([2]; pH 7.4, Day 3) is reported as 43.7% and the “Cumulative Release, % at Day 6” value ([2]; pH 7.4, Day 6) is reported as 66.6%.
With collagenase the “enzymatic activity after immobilization within the polymer system” value [3] was “retain enzymatic activity”.
